Each compound was assayed on Onchocerca gutturosa adult male worms (assay: Onchocerca gutturosa in vitro screening model: adult worm motility score and MTT/formazan viability). Settings: read-out: O. gutt Activity class.
Assay type: cell-based
Work on `Cc1cccnc1S(=O)(=O)Nc1cccc2c(F)ccnc12` [Compound 12, N-(4-fluoro-quinolin-8-yl)-3-methylpyr-idine-2-sulfonamide] yielded an IC50 of 0.2 to 0.5 µM. Compound `Cc1cccnc1S(=O)(=O)Nc1cccc2c(OC(C)C)ccnc12` [Compound 19, N-(4-iso-propoxyquin-olin-8-yl)-3-methylpyr-idine-2-sulfonamide] has an IC50 of 0.5 to 5 µM. Compound `Cc1cccnc1S(=O)(=O)Nc1cccc2ncc(N3CCC3)cc12` [Compound 20, N-(3-(azet-idin-1-yl)-quinolin-5-yl)-3-meth-ylpyridine-2-sulfonamide] has an IC50 of 0.2 to 0.5 µM. Compound `Cc1cccnc1S(=O)(=O)Nc1cccc2ccc(-c3ccccc3)nc12` [Compound 22, 3-methyl-N-(2-phenyl-quinolin-8-yl)pyridine-2-sulfonamide] has an IC50 of 0.5 to 5 µM. `Cc1cccnc1S(=O)(=O)Nc1cccc2ccc(N3CCC3)nc12` [Compound 23, N-(2-(azet-idin-1-yl)-quinolin-8-yl)-3-meth-ylpyridine-2-sulfonamide] was tested, and the IC50 was 0.5 to 5 µM. `Cc1cccnc1S(=O)(=O)Nc1cccc2ncc(N3CCOCC3)cc12` [Compound 24, 3-methyl-N-(3-morpho-linoquinolin-5-yl)pyridine-2-sulfonamide] was tested, and the IC50 was 0.5 to 5 µM. In the case of `CC(C)n1ccnc1S(=O)(=O)Nc1cccc2c1CN(C1CC1)C2` [Compound 33, N-(2-cyclo-propyliso-indolin-4-yl)-1-isopropyl-1H-imidazole-2-sulfonamide], the IC50 is reported as 0.2 to 0.5 µM. In the case of `Cc1cccnc1S(=O)(=O)Nc1cccc2c1CN(C1CC1)CC2` [Compound 36, N-(2-cyclo-propyl-1,2,3,4-tetra-hydroisoquin-olin-8-yl)-3-methylpyr-idine-2-sulfonamide], the IC50 is reported as 0.5 to 5 µM. `CN1CCc2cccc(NS(=O)(=O)c3ncccc3C3CC3)c2C1` [Compound 37, 3-cyclo-propyl-N-(2-methyl-1,2,3,4-tetra-hydroisoquin-olin-8-yl)pyr-idine-2-sulfonamide] gave an IC50 of 0.2 to 0.5 µM. `Cc1cccnc1S(=O)(=O)Nc1cccc2c1N(C1CC1)CCC2` [Compound 38, N-(1-cyclo-propyl-1,2,3,4-tetra-hydroquin-olin-8-yl)-3-methylpyr-idine-2-sulfonamide] was tested, and the IC50 was 0.5 to 5 µM. `CC(C)n1nccc1S(=O)(=O)Nc1cccc2c1CN(C1CC1)C2` [Compound 40, N-(2-cyclo-propyliso-indolin-4-yl)-1-isopropyl-1H-pyrazole-5-sulfonamide] was tested, and the IC50 was 0.5 to 5 µM. `Cc1cccnc1S(=O)(=O)Nc1cccc2c1CN(C1CC1)C2` [Compound 41, N-(2-cyclo-propyliso-indolin-4-yl)-3-methylpyr-idine-2-sulfonamide] gave an IC50 of 0.5 to 5 µM. Compound `Cc1cccnc1S(=O)(=O)Nc1cccc2c1CN(C)CC2` [Compound 43, 3-methyl-N-(2-methyl-1,2,3,4-tetra-hydroisoquin-olin-8-yl)pyr-idine-2-sulfonamide] has an IC50 of less than 0.2 µM. `Cc1cccnc1S(=O)(=O)Nc1cccc2c1N(C)CC2` [Compound 44, 3-methyl-N-(1-methyl-indolin-7-yl)-pyridine-2-sulfonamide] showed an IC50 of 0.5 to 5 µM. With `O=S(=O)(Nc1cccc2c1NCCC2)c1ncccc1F` [Compound 46, 3-fluoro-N-(1,2,3,4-tetra-hydroquin-olin-8-yl)-pyridine-2-sulfonamide] the IC50 was 0.5 to 5 µM. With `CN(C)c1cccnc1S(=O)(=O)Nc1cccc2c1CN(C1CC1)C2` [Compound 47, N-(2-cyclo-propyliso-indolin-4-yl)-3-(dimethyl-amino)pyr-idine-2-sulfonamide] the IC50 was 0.5 to 5 µM. `CN(C)c1cnc(S(=O)(=O)Nc2c(Cl)ccc3cccnc23)cn1` [Compound 49, N-(7-chloro-quinolin-8-yl)-5-(dimeth-ylamino)pyr-azine-2-sulfonamide] gave an IC50 of 0.5 to 5 µM. `CN(C)c1cncc(S(=O)(=O)Nc2c(Cl)ccc3cccnc23)n1` [Compound 50, N-(7-chloro-quinolin-8-yl)-6-(dimeth-ylamino)pyr-azine-2-sulfonamide] showed an IC50 of 0.5 to 5 µM. With `Cc1cccnc1S(=O)(=O)Nc1cccc2c1CN(C)C2` [Compound 51, 3-methyl-N-(2-methyl-isoindolin-4-yl)pyridine-2-sulfonamide] the IC50 was less than 0.2 µM. `Cc1cccnc1S(=O)(=O)Nc1cccc2c1NCCC2` [Compound 56, 3-methyl-N-(1,2,3,4-tetra-hydroquinolin-8-yl)pyridine-2-sulfonamide] was tested, and the IC50 was 0.5 to 5 µM. For `CCn1ccnc1S(=O)(=O)Nc1ccc(OC)c2cccnc12` [Compound 57, 1-ethyl-N-(5-methoxyquin-olin-8-yl)-1H-imidazole-2-sulfonamide], the IC50 was 0.5 to 5 µM. For `Cn1cc(S(=O)(=O)Nc2ccc(F)c3cccnc23)cn1` [Compound 59, N-(5-fluoro-quinolin-8-yl)-1-meth-yl-1H-pyr-azole-4-sulfonamide], the IC50 was 0.5 to 5 µM. For `COc1ccc(NS(=O)(=O)c2ccco2)c2ncccc12` [Compound 60, N-(5-meth-oxyquinolin-8-yl)furan-2-sulfonamide], the IC50 was 0.5 to 5 µM. Compound `O=S(=O)(Nc1ccc(N2CCOCC2)c2cccnc12)c1ccco1` [Compound 61, N-(5-morph-olinoquin-olin-8-yl)-furan-2-sulfonamide] has an IC50 of 0.5 to 5 µM. For `O=S(=O)(Nc1ccc(N2CCOCC2)c2cccnc12)c1cn[nH]c1` [Compound 62, N-(5-morph-olinoquin-olin-8-yl)-1H-pyrazole-4-sulfonamide], the IC50 was 0.5 to 5 µM. Work on `O=S(=O)(Nc1ccc(F)c2cccnc12)c1cn[nH]c1` [Compound 63, N-(5-fluoro-quinolin-8-yl)-1H-pyrazole-4-sulfonamide] yielded an IC50 of 0.5 to 5 µM. `O=S(=O)(Nc1ccc(F)c2cccnc12)c1ccco1` [Compound 64, N-(5-fluoro-quinolin-8-yl)furan-2-sulfonamide] was tested, and the IC50 was less than 0.2 µM. Compound `Cc1ccc(NS(=O)(=O)c2ccco2)c2ncccc12` [Compound 65, N-(5-methyl-quinolin-8-yl)furan-2-sulfonamide] has an IC50 of 0.5 to 5 µM. `O=S(=O)(Nc1c(Cl)ccc2cccnc12)c1ncccc1C1CC1` [Compound 69, N-(7-chloro-quinolin-8-yl)-3-cyclo-propylpyr-idine-2-sulfonamide] showed an IC50 of less than 0.2 µM. `Cc1nccnc1S(=O)(=O)Nc1c(Cl)ccc2cccnc12` [Compound 70, N-(7-chloro-quinolin-8-yl)-3-methyl-pyrazine-2-sulfonamide] showed an IC50 of 0.5 to 5 µM. Compound `N#Cc1ccnc(S(=O)(=O)Nc2c(Cl)ccc3cccnc23)c1` [Compound 71, N-(7-chloro-quinolin-8-yl)-4-cyano-pyridine-2-sulfonamide] has an IC50 of less than 0.2 µM. `O=S(=O)(Nc1c(Cl)ccc2cccnc12)c1cncc(N2CCCC2)n1` [Compound 74, N-(7-chloro-quinolin-8-yl)-6-(pyrrol-idin-1-yl)pyr-azine-2-sulfonamide] showed an IC50 of 0.2 to 0.5 µM. Work on `COc1cnc(S(=O)(=O)Nc2c(Cl)ccc3cccnc23)cn1` [Compound 78, N-(7-chloro-quinolin-8-yl)-5-meth-oxypyrazine-2-sulfonamide] yielded an IC50 of 0.5 to 5 µM. `CC(C)n1nccc1S(=O)(=O)Nc1cccc2c(Cl)ccnc12` [Compound 79, N-(4-chloro-quinolin-8-yl)-1-iso-propyl-1H-pyrazole-5-sulfonamide] showed an IC50 of less than 0.2 µM. `COc1cncc(S(=O)(=O)Nc2c(Cl)ccc3cccnc23)n1` [Compound 81, N-(7-chloro-quinolin-8-yl)-6-meth-oxypyrazine-2-sulfonamide] was tested, and the IC50 was 0.5 to 5 µM. Compound `N#Cc1cccc(S(=O)(=O)Nc2c(Cl)ccc3cccnc23)c1` [Compound 82, N-(7-chloro-quinolin-8-yl)-3-cyano-benzene sulfonamide] has an IC50 of 0.5 to 5 µM. Compound `Cc1cc(C)cc(S(=O)(=O)Nc2cc(F)cc3cccnc23)c1` [Compound 91, N-(6-fluoro-quinolin-8-yl)-3,5-dimethyl-benzene-sulfonamide] has an IC50 of less than 0.2 µM. `NC(=O)c1cccc(S(=O)(=O)Nc2ccc(N3CCOCC3)c3cccnc23)c1` [Compound 92, 3-(N-(5-morpholino-quin-olin-8-yl)sulfamoyl)-benzamide] was tested, and the IC50 was 0.5 to 5 µM. Compound `Cc1ccc(S(=O)(=O)Nc2cc(C)cc3cccnc23)cc1` [Compound 93, 4-methyl-N-(6-methyl-quinolin-8-yl)benzene-sulfonamide] has an IC50 of 0.2 to 0.5 µM. `O=S(=O)(Nc1cc(O)cc2cccnc12)c1ccccn1` [Compound 94, N-(6-hydroxy-quinolin-8-yl)pyridine-2-sulfonamide] gave an IC50 of 0.5 to 5 µM. `Cc1ccc(S(=O)(=O)Nc2ccc(N3CCC(O)(c4ccccc4)CC3)c3cccnc23)cc1` [Compound 95, N-(5-(4-hydroxy-4-phenylpiper-idin-1-yl)-quinolin-8-yl)-4-methyl-benzene-sulfonamide] showed an IC50 of 0.5 to 5 µM. With `Cc1ccc(S(=O)(=O)Nc2cccc3cc(C)cnc23)cc1` [Compound 96, 4-methyl-N-(3-methyl-quinolin-8-yl)benzene-sulfonamide] the IC50 was less than 0.2 µM. `O=S(=O)(Nc1cc(-c2ccccc2)cc2cccnc12)c1ccccn1` [Compound 97, N-(6-phenyl-quinolin-8-yl)pyridine-2-sulfonamide] showed an IC50 of 0.5 to 5 µM. Work on `COc1nccnc1S(=O)(=O)Nc1c(Cl)ccc2cccnc12` [Compound 101, N-(7-chloro-quinolin-8-yl)-3-methoxypyr-azine-2-sulfon-amide] yielded an IC50 of 0.5 to 5 µM. Work on `COc1cc(OC)cc(S(=O)(=O)Nc2cc(F)cc3cccnc23)c1` [Compound 128, N-(6-fluoro-quinolin-8-yl)-3,5-dimethoxy-benzenesulfon-amide] yielded an IC50 of less than 0.2 µM. Work on `Cc1cc(NS(=O)(=O)c2nccn2C)c2ncccc2c1` [Compound 129, 1-methyl-N-(6-methyl-quinolin-8-yl)-1H-imidazole-2-sulfonamide] yielded an IC50 of less than 0.2 µM. Compound `CCc1ccc(NS(=O)(=O)c2nccn2C)c2ncccc12` [Compound 130, N-(5-ethyl-quinolin-8-yl)-1-methyl-1H-imidazole-2-sulfonamide] has an IC50 of 0.5 to 5 µM. For `O=S(=O)(Nc1cc(C2CCCCC2)cc2cccnc12)c1ccccn1` [Compound 131, N-(6-cyclo-hexylquinolin-8-yl)pyridine-2-sulfonamide], the IC50 was 0.5 to 5 µM. For `Cc1cc(NS(=O)(=O)c2ccccn2)c2ncccc2c1` [Compound 132, N-(6-methyl-quinolin-8-yl)pyridine-2-sulfonamide], the IC50 was 0.2 to 0.5 µM. `Cn1ccnc1S(=O)(=O)Nc1ccc(F)c2cccnc12` [Compound 133, N-(5-fluoro-quinolin-8-yl)-1-methyl-1H-imidazole-2-sulfonamide] gave an IC50 of less than 0.2 µM. With `Cn1ccnc1S(=O)(=O)Nc1cc(F)cc2cccnc12` [Compound 134, N-(6-fluoro-quinolin-8-yl)-1-methyl-1H-imidazole-2-sulfonamide] the IC50 was less than 0.2 µM.

Reference: US20240148744A1 (Celgene Corporation, priority 2021, published 2024)
